Laboratory results published in the supplement of paper PMC10307832.

Legend:
Assay in all cases: relative viability (nuclei count vs DMSO), 5 days (fraction); higher = more cells survive
[1] = compound: COc1cc(Nc2ncc(F)c(Nc3ccc4c(n3)NC(=O)C(C)(C)O4)n2)cc(OC)c1OC [R406] + CS(=O)(=O)N1CCN(Cc2cc3nc(-c4cccc5[nH]ncc45)nc(N4CCOCC4)c3s2)CC1 [Pictilisib] (partner 1 µM)
How it was run: (§1)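 Lung cancer cell lines in 1536-well plates were dosed by pin tool the day after seeding, either with one drug alone or with a fixed anchor-drug dose plus five library-drug doses (not always all listed) in √10 steps. After 5 days, cells were fixed and their nuclei stained in one step (final 0.05% Triton X-100, 1% formaldehyde, 1 ug/ml Hoechst), then counted on 4× images. Relative viability is the nuclei count in treated wells divided by that in vehicle wells. Values are medians of duplicate plates.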

[2] = compound: COc1cc(Nc2ncc(F)c(Nc3ccc4c(n3)NC(=O)C(C)(C)O4)n2)cc(OC)c1OC [R406] + Nc1ncn([C@H]2C[C@H](O)[C@@H](CO)O2)c(=O)n1 [Decitabine] (partner 2 µM)
How it was run: as §1

[3] = compound: O=C(/C=C/c1cccnc1)NCCCCC1CCN(C(=O)c2ccccc2)CC1 [Daporinad] + CC(=O)Nc1cccc(-n2c(=O)n(C3CC3)c(=O)c3c(Nc4ccc(I)cc4F)n(C)c(=O)c(C)c32)c1 [Trametinib] (partner 0.02 µM)
How it was run: as §1

[4] = compound: O=C(/C=C/c1cccnc1)NCCCCC1CCN(C(=O)c2ccccc2)CC1 [Daporinad] + C[C@@H](Oc1cc(-c2cnn(C3CCNCC3)c2)cnc1N)c1c(Cl)ccc(F)c1Cl [Crizotinib] (partner 1 µM)
How it was run: as §1

Cell Line UMC-11 has a relative viability ([1]; first compound 0.08 µM) of 0.864, a relative viability ([1]; first compound 0.253 µM) of 1.07 and a relative viability ([1]; first compound 0.8 µM) of 0.863. For the same cell line, the relative viability ([1]; first compound 2.53 µM) was 0.568, the relative viability ([1]; first compound 8 µM) was 0.369 and the relative viability ([2]; first compound 0.08 µM) was 0.618. For the same cell line, the relative viability ([2]; first compound 0.253 µM) was 0.703, the relative viability ([2]; first compound 0.8 µM) was 0.75 and the relative viability ([2]; first compound 2.53 µM) was 1.34. For the same cell line, the relative viability ([2]; first compound 8 µM) was 0.312, the relative viability ([3]; first compound 0.0005 µM) was 0.645 and the relative viability ([3]; first compound 0.001581 µM) was 0.926. For the same cell line, the relative viability ([3]; first compound 0.005 µM) was 0.775, the relative viability ([3]; first compound 0.01581 µM) was 1.14 and the relative viability ([4]; first compound 0.0005 µM) was 0.672. For the same cell line, the relative viability ([4]; first compound 0.001581 µM) was 0.641, the relative viability ([4]; first compound 0.005 µM) was 0.852 and the relative viability ([4]; first compound 0.01581 µM) was 0.656.
